Assay results from patent US6387925B1, “Polymorphs of a crystalline azo-bicyclo (2.2.2) oct-3-yl amine citrate and their pharmaceutical compositions” (Pfizer Inc., priority 1999, dated 2002).
Entries after “also recorded” stand apart in the source; their conditions may differ. Counter-ions that a name gives are not always drawn. Like-named read-outs stand apart in the source and are kept apart here.

Assay: Hygroscopicity measurements
Type: physicochemical
Conditions: for water absorbed (hygroscopicity): at 90% RH
Method: Anhydrous citrate synthesis was carried out by adding 1.1 equivalents citric acid to a stirred slurry of the free base in isopropanol (15 volumes) at room temperature. The resulting solution was stirred and monitored by differential scanning calorimetry and after all the free base had reacted (18 hours), the anhydrous citrate salt was obtained as a white crystalline solid by filtration and drying under house vacuum at 45° C. with nitrogen purge (83% yield). […] The crystalline habits frequently encountered are microcrystalline flakes. The most intense reflections, d spacings, observed by X-ray powder diffraction were 17.608, 10.953, 8.782, 7.956, 7.371, 6.802, 6.571, 5.866, 5.462, 4.907, 4.415, 4.188, 3.635 and 3.512Å.
The resulting citrate monohydrate salt, Form A, was compared to an authentic sample and characterized via PLM, X-ray powder diffraction, proton NMR, Karl Fisher, DSC and elemental analysis. […] The two crystalline habits having similar refractograms encountered were plates and needles. The needle habit was as a result of different rate of growth of the crystal faces in water whereas in isopropanol/water more even growth of crystal faces produced plates. The most intense reflections, d spacings, observed by X-ray powder diffraction were 17.730, 10.928, 9.651, 8.253, 6.707, 5.981, 5.666, 5.450, 4.833, 4.488, and 3.646Å. […] Elemental analysis validated the purity of the salt synthesized.

Structure (SMILES)	water absorbed (hygroscopicity)	hygroscopicity (in words) (citrate monohydrate)	hygroscopicity (in words)
COc1ccc(C(C)C)cc1CNC1C2CCN(CC2)C1C(c1ccccc1)c1ccccc1.O.O=C(O)CC(O)(CC(=O)O)C(=O)O (stereo not shown) [Form A]	2.44 % wt./wt.	hygroscopically stable; also recorded: lack of hygroscopicity	
COc1ccc(C(C)C)cc1CN[C@H]1C2CCN(CC2)[C@H]1C(c1ccccc1)c1ccccc1 [anhydrous citrate salt, (2-Benzhydryl-1-azo-bicyclo[2.2.2]oct-3-yl)-(5-isopropyl-2-methoxybenzyl)-amine citrate]	1.11 % wt./wt.		nonhygroscopic
